PMC6471485, “Selective Inhibitors of a Human Prolyl Hydroxylase (OGFOD1) Involved in Ribosomal Decoding” (Chemistry (Weinheim an Der Bergstrasse, Germany), 2019)

Key:
JARID1B = JARID1B (Homo sapiens, UniProt Q9UGL1); experiment: JARID1B AlphaScreen-based assay; assay type: biochemical
Method: (§1) reactions were quenched after 4 min. KDM4A inhibition was tested as described previously using a formaldehyde dehydrogenase (FDH) assay.[9] JARID1B and JARID1C inhibition was tested as described previously using reported AlphaScreen-based assays.[10] MINA531-464 and NO66116-641 were cloned into pFB-LIC-Bse, and the N-terminal His-tagged proteins were produced in Sf9 insect cells. The MINA53 peptide substrate Rpl27a […]
(§2) (Gly31 – Pro49 […]) and the NO66 peptide substrate Rpl8
(§3) (Asn205 – Thr224 […]) were synthesized by Peptide Protein
Research Ltd (Fareham, Hampshire, UK) to >95% purity. IC50 determinations were performed in 384-well polypropylene plates (Greiner Bio One, Cat Number 781096), and compound dispenses were performed using an ECHO 550 acoustic dispenser (Labcyte, Sunnyvale, CA).
NO66 (diluted to 375 nM in 50 mM MES pH 7.0, 150 mM NaCl) and MINA53 (diluted to 187.5 nM in 50 mM HEPES pH 7.5, 50 mM NaCl) were dispensed (40 µL) into 384-well compound plates using a multidrop combi reagent dispenser (Thermo Scientific, Code 5840300) with a small tube plastic tip dispensing cassette (Thermo Scientific, Code 24073290).
NO66 and MINA53 were pre-incubated with compound for 15 minutes, and the enzyme reaction initiated by dispensing 10 µL of substrate solution [250 µM (NH4)2Fe(SO4)2, 500 µM sodium ascorbate, 25 µM 2OG, 25 µM peptide] in optimized enzyme buffer. […]

MINA53 = molecular target: T1, MINA53 (Homo sapiens, UniProt Q8IUF8); experiment: MINA53 IC50 determination, RapidFire MS; assay type: biochemical
T1 construct: 1-464 and NO66116-641 were cloned into pFB-LIC-Bse; His (N); made in house; host or cells: Sf9 insect cells
Method: as §1, §2, §3
Research Ltd (Fareham, Hampshire, UK) to >95% purity. IC50 determinations were performed in 384-well polypropylene plates (Greiner Bio One, Cat Number 781096), and compound dispenses were performed using an ECHO 550 acoustic dispenser (Labcyte, Sunnyvale, CA). […]
RapidFire integrator software (Agilent). Percent conversion was calculated in Excel, and IC50 curves were generated using Prism v. […]
Assays consisted of enzyme (2 µM), inhibitor (200 µM), MnCl2 (50 µM), and SYPRO Orange (1:5000 dilution), all prepared in 50 mM HEPES, pH 7.5. […] An Opticon thermal cycler (MJ Research Inc) was used to control temperature and measure fluorescence. […]
CPMG Binding Experiments: Binding of the inhibitors to the proteins was monitored using Carr-Purcell-Meiboom-Gill (CPMG)-edited 1H spectra. […]

Sequence of JARID1B (Q9UGL1 whole entry): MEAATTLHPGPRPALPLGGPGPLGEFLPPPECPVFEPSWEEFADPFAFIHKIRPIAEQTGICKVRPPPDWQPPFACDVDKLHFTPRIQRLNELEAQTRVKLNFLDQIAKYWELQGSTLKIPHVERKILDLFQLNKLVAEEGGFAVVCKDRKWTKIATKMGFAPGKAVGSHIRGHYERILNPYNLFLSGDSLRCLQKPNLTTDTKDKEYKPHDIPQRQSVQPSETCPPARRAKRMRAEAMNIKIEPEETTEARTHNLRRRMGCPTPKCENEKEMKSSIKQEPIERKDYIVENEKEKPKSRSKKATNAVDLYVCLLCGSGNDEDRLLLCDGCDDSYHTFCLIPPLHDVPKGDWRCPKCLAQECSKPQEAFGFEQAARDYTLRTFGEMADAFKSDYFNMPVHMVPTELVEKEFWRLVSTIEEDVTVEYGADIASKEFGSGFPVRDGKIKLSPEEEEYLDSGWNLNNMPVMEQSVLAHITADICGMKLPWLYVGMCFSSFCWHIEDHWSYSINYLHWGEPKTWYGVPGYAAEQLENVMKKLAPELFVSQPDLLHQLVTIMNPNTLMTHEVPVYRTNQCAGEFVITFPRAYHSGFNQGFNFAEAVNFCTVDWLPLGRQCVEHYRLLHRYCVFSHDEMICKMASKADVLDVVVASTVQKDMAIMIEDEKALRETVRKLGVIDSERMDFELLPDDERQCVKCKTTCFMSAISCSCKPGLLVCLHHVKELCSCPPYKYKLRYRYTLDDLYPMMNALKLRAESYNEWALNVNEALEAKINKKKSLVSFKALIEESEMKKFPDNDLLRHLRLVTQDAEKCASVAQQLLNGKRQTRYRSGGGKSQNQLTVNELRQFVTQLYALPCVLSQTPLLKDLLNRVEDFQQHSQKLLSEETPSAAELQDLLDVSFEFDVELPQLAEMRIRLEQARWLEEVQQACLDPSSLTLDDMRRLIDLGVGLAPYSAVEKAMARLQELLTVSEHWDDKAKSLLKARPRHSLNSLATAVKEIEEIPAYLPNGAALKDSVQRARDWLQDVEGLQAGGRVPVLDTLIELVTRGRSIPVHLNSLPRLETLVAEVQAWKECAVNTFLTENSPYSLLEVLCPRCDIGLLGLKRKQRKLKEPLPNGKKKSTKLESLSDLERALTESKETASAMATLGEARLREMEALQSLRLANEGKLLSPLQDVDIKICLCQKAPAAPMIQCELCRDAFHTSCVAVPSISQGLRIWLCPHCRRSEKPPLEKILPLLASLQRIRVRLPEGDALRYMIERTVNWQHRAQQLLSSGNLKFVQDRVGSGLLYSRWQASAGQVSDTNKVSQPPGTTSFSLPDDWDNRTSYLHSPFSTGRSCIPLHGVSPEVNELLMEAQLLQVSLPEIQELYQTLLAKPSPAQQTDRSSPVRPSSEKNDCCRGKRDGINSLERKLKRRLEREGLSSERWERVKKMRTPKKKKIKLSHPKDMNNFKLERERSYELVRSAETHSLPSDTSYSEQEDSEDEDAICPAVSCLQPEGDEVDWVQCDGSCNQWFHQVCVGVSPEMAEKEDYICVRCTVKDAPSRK
T1 sequence (Q8IUF8 1-464 limits assumed): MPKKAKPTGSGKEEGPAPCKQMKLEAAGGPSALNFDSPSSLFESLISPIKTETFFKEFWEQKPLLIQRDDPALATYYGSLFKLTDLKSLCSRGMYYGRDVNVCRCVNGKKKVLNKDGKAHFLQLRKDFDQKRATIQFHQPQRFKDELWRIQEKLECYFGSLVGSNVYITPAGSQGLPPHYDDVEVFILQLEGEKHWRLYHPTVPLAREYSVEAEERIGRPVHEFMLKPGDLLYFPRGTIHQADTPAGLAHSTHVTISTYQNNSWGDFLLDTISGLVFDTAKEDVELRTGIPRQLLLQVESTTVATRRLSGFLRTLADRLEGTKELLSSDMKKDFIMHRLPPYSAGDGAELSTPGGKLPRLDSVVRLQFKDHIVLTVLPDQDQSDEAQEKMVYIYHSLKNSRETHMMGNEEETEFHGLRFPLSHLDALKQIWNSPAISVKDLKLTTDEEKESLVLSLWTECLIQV

| SMILES | IC50 (JARID1B) [µM] | IC50 (MINA53) [µM] |
| --- | --- | --- |
| Cn1c(O)c(C(=O)CCc2ccccc2)c(=O)n(C)c1=O [compound 26] | > 100 | > 100 |
| Cn1c(O)c(C(=O)CCc2cccs2)c(=O)n(C)c1=O [compound 42] | > 100 | > 100 |
